The target of this assay is T1, human HSL (Homo sapiens, UniProt Q05469).
T1 construct: overlapping PCR to generate a full length human HSL ORF with a 3′-His6 tag; His6 (C); made in house; host or cells: High 5 insect cells (baculovirus, pFast-BAC)
T1 sequence (Q05469 1-1076): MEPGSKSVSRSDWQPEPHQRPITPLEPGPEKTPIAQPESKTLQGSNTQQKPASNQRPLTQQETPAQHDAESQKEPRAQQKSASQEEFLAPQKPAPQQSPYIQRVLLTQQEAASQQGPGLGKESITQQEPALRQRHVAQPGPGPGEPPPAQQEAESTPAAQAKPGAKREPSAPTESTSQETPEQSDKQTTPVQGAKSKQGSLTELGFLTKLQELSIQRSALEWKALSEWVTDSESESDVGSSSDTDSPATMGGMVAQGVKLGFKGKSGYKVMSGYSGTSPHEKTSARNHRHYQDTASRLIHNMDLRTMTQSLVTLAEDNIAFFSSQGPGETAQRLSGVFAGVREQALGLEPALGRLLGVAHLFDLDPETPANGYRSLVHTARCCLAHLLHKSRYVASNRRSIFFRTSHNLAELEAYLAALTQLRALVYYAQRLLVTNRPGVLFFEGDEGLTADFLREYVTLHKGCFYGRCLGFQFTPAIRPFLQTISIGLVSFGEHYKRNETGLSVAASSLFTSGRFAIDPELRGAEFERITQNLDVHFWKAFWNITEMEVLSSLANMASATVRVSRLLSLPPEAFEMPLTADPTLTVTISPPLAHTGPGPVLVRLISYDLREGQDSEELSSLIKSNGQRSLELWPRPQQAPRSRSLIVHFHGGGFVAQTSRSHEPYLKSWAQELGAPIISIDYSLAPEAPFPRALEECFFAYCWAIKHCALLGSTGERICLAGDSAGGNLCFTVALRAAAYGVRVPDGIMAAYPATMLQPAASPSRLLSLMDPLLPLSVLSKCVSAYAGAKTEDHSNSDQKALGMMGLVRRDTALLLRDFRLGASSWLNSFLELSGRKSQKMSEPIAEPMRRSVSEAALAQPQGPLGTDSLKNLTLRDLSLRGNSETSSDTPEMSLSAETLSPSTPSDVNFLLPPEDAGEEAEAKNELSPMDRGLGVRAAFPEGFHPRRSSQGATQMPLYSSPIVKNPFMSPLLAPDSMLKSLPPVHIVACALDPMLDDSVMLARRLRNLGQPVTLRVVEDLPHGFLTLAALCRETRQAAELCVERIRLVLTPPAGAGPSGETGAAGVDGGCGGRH
Nature of the assay: Human Hormone-Sensitive Lipase (HSL) Enzyme Inhibition Assay. In kind it is biochemical. As to conditions: colorimetric assay, 2,3-dimercapto-1-propanol tributyrate (DMPT) substrate, 37° C. for 20 minutes, absorbance at 405 nm; read-out: HSL hum IC50. Summed up: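 Colorimetric thioester hydrolysis: compounds in DMSO series mixed with DMPT (1.5 mM) in MOPS pH 7.2 with BSA, then baculovirus-expressed His6-tagged full-length human HSL added, 37° C, 20 min. DTNB plus detergents added, 15 min room temperature, absorbance at 405 nm.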

Take `C=Cc1ccc(N2CCC3(CCN(S(=O)(=O)c4ccccc4Cl)CC3)C2=O)cc1` [Example 91, 8-(2-Chloro-benzenesulfonyl)-2-(4-vinyl-phenyl)-2,8-diaza-spiro[4.5]decan-1-one]: the IC50 was 40 nM.
Regarding `CC(C)Oc1ccc(N2CCC3(CCN(S(=O)(=O)CC4CCC4)CC3)C2=O)cc1` [Example 92, 8-Cyclobutylmethanesulfonyl-2-(4-isopropoxy-phenyl)-2,8-diaza-spiro[4.5]decan-1-one], the IC50 was determined as 170 nM.
`O=C1N(c2ccc(OC(F)(F)F)cc2)CCC12CCN(S(=O)(=O)CC1CCC1)CC2` [Example 93, 8-Cyclobutylmethanesulfonyl-2-(4-trifluoromethoxy-phenyl)-2,8-diaza-spiro[4.5]decan-1-one]: the IC50 amounted to 90 nM.
With `CC(C)CS(=O)(=O)N1CCC2(CCN(c3ccc(OCC4CC4)cc3)C2=O)CC1` [Example 94, 2-(4-Cyclopropylmethoxy-phenyl)-8-(2-methyl-propane-1-sulfonyl)-2,8-diaza-spiro[4.5]decan-1-one], the IC50 was found to be 270 nM.
For the compound `CC(C)Oc1ccc(N2CCC3(CCN(S(=O)(=O)C4CC4)CC3)C2=O)cc1` [Example 95, 8-Cyclopropanesulfonyl-2-(4-isopropoxy-phenyl)-2,8-diaza-spiro[4.5]decan-1-one], the IC50 turned out to be 360 nM.
In the case of `O=C1N(c2ccc(OC(F)(F)F)cc2)CCC12CCN(S(=O)(=O)C1CC1)CC2` [Example 96, 8-Cyclopropanesulfonyl-2-(4-trifluoromethoxy-phenyl)-2,8-diaza-spiro[4.5]decan-1-one] it was 130 nM; in that of `Cc1noc(C)c1S(=O)(=O)N1CCC2(CCN(c3ccc(OC(C)C(F)(F)F)cc3)C2=O)CC1` (stereo not shown) [Example 97, 8-(3,5-Dimethyl-isoxazole-4-sulfonyl)-2-[4-(2,2,2-trifluoro-1-methyl-ethoxy)-phenyl]-2,8-diaza-spiro[4.5]decan-1-one], 110 nM.
The figure for `CC(Oc1ccc(N2CCC3(CCN(S(=O)(=O)C4CC4)CC3)C2=O)cc1)C(F)(F)F` (stereo not shown) [Example 98, 8-Cyclopropanesulfonyl-2-[4-(2,2,2-trifluoro-1-methyl-ethoxy)-phenyl]-2,8-diaza-spiro[4.5]decan-1-one] is 170 nM; for `CC(Oc1ccc(N2CCC3(CCN(S(=O)(=O)c4ccccc4OC(F)(F)F)CC3)C2=O)cc1)C(F)(F)F` (stereo not shown) [Example 99, 8-(2-Trifluoromethoxy-benzenesulfonyl)-2-[4-(2,2,2-trifluoro-1-methyl-ethoxy)-phenyl]-2,8-diaza-spiro[4.5]decan-1-one] it is 30 nM; for `CC(Oc1ccc(N2CCC3(CCN(S(=O)(=O)c4ccccc4C(F)(F)F)CC3)C2=O)cc1)C(F)(F)F` (stereo not shown) [Example 100, 8-(2-Trifluoromethyl-benzenesulfonyl)-2-[4-(2,2,2-trifluoro-1-methyl-ethoxy)-phenyl]-2,8-diaza-spiro[4.5]decan-1-one] it is 40 nM.
The figure for `CC(Oc1ccc(N2CCC3(CCN(S(=O)(=O)c4ccccc4C(F)(F)F)CC3)C2=O)cc1)C(F)(F)F` (stereo not shown) [Example 101] is 40 nM; for `CC(C)CS(=O)(=O)N1CCC2(CCN(c3ccc(OCCC(F)(F)F)cc3)C2=O)CC1` [Example 102, 8-(2-Methyl-propane-1-sulfonyl)-2-[4-(3,3,3-trifluoro-propoxy)-phenyl]-2,8-diaza-spiro[4.5]decan-1-one] it is 360 nM.
Take `O=C1N(c2ccc(OCCC(F)(F)F)cc2)CCC12CCN(S(=O)(=O)c1ccccc1OC(F)(F)F)CC2` [Example 103, 8-(2-Trifluoromethoxy-benzenesulfonyl)-2-[4-(3,3,3-trifluoro-propoxy)-phenyl]-2,8-diaza-spiro[4.5]decan-1-one]: the IC50 was determined as 50 nM.
In the case of `O=C1N(c2ccc(I)cc2)CCC12CCN(S(=O)(=O)c1ccccc1OC(F)(F)F)CC2` [Example 104, 2-(4-Iodo-phenyl)-8-(2-trifluoromethoxy-benzenesulfonyl)-2,8-diaza-spiro[4.5]decan-1-one], the half-inhibitory concentration (IC50) worked out at 40 nM.
As to `COCCc1ccc(N2CCC3(CCN(S(=O)(=O)c4ccccc4OC(F)(F)F)CC3)C2=O)cc1` [Example 105, 2-[4-(2-Methoxy-ethyl)-phenyl]-8-(2-trifluoromethoxy-benzenesulfonyl)-2,8-diaza-spiro[4.5]decan-1-one], the IC50 was 20 nM.
Turning to `COCCOc1ccc(N2CCC3(CCN(S(=O)(=O)c4ccccc4OC(F)(F)F)CC3)C2=O)cc1` [Example 106, 2-[4-(2-Methoxy-ethoxy)-phenyl]-8-(2-trifluoromethoxy-benzenesulfonyl)-2,8-diaza-spiro[4.5]decan-1-one], the IC50 came out at 40 nM.
Consider `COCCCOc1ccc(N2CCC3(CCN(S(=O)(=O)CC(C)C)CC3)C2=O)cc1` [Example 107, 2-[4-(3-Methoxy-propoxy)-phenyl]-8-(2-methyl-propane-1-sulfonyl)-2,8-diaza-spiro[4.5]decan-1-one], for which the IC50 is 740 nM.
In the case of `COCC(C)(C)c1ccc(N2CCC3(CCN(S(=O)(=O)CC(C)C)CC3)C2=O)cc1` [Example 108, 2-[4-(2-Methoxy-1,1-dimethyl-ethyl)-phenyl]-8-(2-methyl-propane-1-sulfonyl)-2,8-diaza-spiro[4.5]decan-1-one] it was 100 nM; in that of `COCCCOc1ccc(N2CCC3(CCN(S(=O)(=O)c4ccccc4OC(F)(F)F)CC3)C2=O)cc1` [Example 109, 2-[4-(3-Methoxy-propoxy)-phenyl]-8-(2-trifluoromethoxy-benzenesulfonyl)-2,8-diaza-spiro[4.5]decan-1-one], 40 nM.
`COCC(C)(C)c1ccc(N2CCC3(CCN(S(=O)(=O)c4ccccc4OC(F)(F)F)CC3)C2=O)cc1` [Example 110, 2-[4-(2-Methoxy-1,1-dimethyl-ethyl)-phenyl]-8-(2-trifluoromethoxy-benzenesulfonyl)-2,8-diaza-spiro[4.5]decan-1-one]: the IC50 is 30 nM.
In the case of `Cc1noc(C)c1S(=O)(=O)N1CCC2(CCN(c3ccc(OC(C)C)cc3)C2=O)CC1` [Example 111, 8-(3,5-Dimethyl-isoxazole-4-sulfonyl)-2-(4-isopropoxy-phenyl)-2,8-diaza-spiro[4.5]decan-1-one] it was 110 nM.
The figure for `COCC(C)(C)c1ccc(N2CCC3(CCN(S(=O)(=O)c4c(C)noc4C)CC3)C2=O)cc1` [Example 112, 8-(3,5-Dimethyl-isoxazole-4-sulfonyl)-2-[4-(2-methoxy-1,1-dimethyl-ethyl)-phenyl]-2,8-diaza-spiro[4.5]decan-1-one] is 270 nM.
In the case of `CC(Oc1ccc(N2CCC3(CCN(C(=O)C4(C)CC4(Cl)Cl)CC3)C2=O)cc1)C(F)(F)F` (stereo not shown) [Example 113, 8-(2,2-Dichloro-1-methyl-cyclopropanecarbonyl)-2-[4-(2,2,2-trifluoro-1-methyl-ethoxy)-phenyl]-2,8-diaza-spiro[4.5]decan-1-one] it was 140 nM; in that of `O=C1N(c2ccc(OCC(F)(F)F)cc2)CCC12CCN(S(=O)(=O)c1ccccc1Cl)CC2` [Example 115, 8-(2-Chloro-benzenesulfonyl)-2-[4-(2,2,2-trifluoro-ethoxy)-phenyl]-2,8-diaza-spiro[4.5]decan-1-one], 30 nM.
As for `O=C1N(c2ccc(OCCC(F)(F)F)nc2)CCC12CCN(S(=O)(=O)c1ccccc1Cl)CC2` [Example 116, 8-(2-Chloro-benzenesulfonyl)-2-[6-(3,3,3-trifluoro-propoxy)-pyridin-3-yl]-2,8-diaza-spiro[4.5]decan-1-one], the IC50 stood at 110 nM.

Usually IC50 stands for the concentration that inhibits the measured activity by half.

(Values after US8329904B2, “Azacyclic derivatives” (Hoffmann-La Roche Inc., priority 2009, dated 2012).)
